Results on one molecule are retold here after US7727736B2, “Soluble phospholipids for use in clotting factor assays” (The University of North Carolina at Chapel Hill, priority 2003, dated 2010).

Data set [1] has as its target APC (Homo sapiens, UniProt P04070). Nature of the data set: SPS binding to APC. As to conditions: other experiments. From the text:
Proteolysis at Arg^506 leads to partial inactivation, but proteolysis at Arg^306 is necessary for full inactivation (Kalafatis & Mann (1993) J. Biol. Chemistry 268 27246; Nicolaes et al., (1995) J. Biol. Chemistry (1995) 270 21158). […] The rate of proteolysis of the bond at Arg^306 increased from undetectable to a value of kcat/KM=3-3.5×10^6 M^−1sec^−1, identical to the rate reported with PS-containing membranes.

The target of data set [2] is T1, factor VIII (Homo sapiens, UniProt P00451).
T1 construct: using normal pooled plasma (100% factor VIII); from tissue; host or cells: normal pooled plasma
T1 sequence (P00451 20-391 limits assumed): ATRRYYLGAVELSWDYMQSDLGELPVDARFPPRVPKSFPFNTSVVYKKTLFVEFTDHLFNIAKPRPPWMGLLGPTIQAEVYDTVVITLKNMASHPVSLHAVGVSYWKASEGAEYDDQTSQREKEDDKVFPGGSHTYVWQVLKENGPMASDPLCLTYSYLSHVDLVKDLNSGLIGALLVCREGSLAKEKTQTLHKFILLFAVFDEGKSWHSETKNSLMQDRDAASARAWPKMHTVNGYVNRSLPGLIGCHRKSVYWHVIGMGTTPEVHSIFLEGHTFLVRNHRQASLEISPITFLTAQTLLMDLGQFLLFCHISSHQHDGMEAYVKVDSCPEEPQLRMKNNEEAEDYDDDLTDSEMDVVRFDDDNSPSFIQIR
T1 sequence (P00451 392-759 limits assumed): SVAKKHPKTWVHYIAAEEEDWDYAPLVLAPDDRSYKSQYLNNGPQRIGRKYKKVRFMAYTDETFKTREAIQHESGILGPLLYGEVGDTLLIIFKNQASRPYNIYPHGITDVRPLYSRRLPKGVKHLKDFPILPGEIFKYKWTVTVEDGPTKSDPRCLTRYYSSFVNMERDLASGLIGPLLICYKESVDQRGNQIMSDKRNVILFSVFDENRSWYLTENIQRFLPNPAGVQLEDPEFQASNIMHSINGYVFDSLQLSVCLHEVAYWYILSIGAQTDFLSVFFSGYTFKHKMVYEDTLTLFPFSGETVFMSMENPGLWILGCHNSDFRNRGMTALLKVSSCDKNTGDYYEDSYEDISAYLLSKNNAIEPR
T1 sequence (P00451 1709-2351 limits assumed): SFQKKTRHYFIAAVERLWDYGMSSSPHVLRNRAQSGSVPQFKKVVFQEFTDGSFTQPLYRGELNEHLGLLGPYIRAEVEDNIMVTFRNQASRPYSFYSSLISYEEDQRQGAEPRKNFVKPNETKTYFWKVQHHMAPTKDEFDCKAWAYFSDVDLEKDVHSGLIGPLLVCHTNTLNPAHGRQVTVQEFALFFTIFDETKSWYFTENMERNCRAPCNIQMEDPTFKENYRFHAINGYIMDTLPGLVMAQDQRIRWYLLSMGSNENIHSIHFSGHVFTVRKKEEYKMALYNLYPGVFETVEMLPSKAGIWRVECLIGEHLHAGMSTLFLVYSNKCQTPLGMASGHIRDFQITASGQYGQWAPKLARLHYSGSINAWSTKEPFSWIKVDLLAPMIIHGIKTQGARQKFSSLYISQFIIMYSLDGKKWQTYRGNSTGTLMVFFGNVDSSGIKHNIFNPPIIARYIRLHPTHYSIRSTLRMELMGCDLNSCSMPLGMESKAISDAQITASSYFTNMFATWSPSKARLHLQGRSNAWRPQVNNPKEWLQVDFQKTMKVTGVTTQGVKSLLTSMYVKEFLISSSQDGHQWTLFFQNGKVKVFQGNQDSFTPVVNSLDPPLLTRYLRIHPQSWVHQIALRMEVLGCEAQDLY
T1 sequence (P00740 47-191 partner limits assumed): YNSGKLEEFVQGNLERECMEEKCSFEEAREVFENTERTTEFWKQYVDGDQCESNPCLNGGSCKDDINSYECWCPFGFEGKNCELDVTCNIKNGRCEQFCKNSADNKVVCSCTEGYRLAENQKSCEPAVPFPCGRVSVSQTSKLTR
T1 sequence (P00740 227-461 partner limits assumed): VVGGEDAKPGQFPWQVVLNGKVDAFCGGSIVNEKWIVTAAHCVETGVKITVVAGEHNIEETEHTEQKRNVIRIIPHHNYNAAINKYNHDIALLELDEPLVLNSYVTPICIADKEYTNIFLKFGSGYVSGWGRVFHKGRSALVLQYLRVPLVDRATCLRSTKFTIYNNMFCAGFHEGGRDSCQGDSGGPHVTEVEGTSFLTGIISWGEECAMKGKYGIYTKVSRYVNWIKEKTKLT
The experiment in a line: Chromogenic FVIII assay. In kind it is biochemical. The settings on record: normal pooled plasma (100% factor VIII), varying C6PS. The procedure: For the chromogenic […], a standard curve was prepared by diluting normal pooled plasma (which had 1 U/mL […] according to the certification sheets) into […] to give levels of 100% factor VIII, 75%, 50%, 25%, and 10% along with the factor VIII deficient plasma, which has 0% factor VIII.
Two mixtures were prepared. Mixture #1 consisted of thrombin—3 nM, factor IXa—3 nM, factor X—7.2 μg/mL, calcium—12 mM in a buffer of 20 mM Tris (pH 7.9), 150 mM NaCl. Also included in Mixture #1 were either lipid vesicles (lipid unilamellar vesicles; “LUV”)—20 μM or C6PS—2,625 μM. Mixture #2 consisted of hirudin—60 nM and Pefachrome FXa—1.8 mM in a buffer of 20 mM Tris (pH 7.9), 150 mM NaCl.
Factor VIII levels were assayed by adding 25 μL plasma to 2000 μL of buffer. 50 μL of the diluted plasma, 100 μL Mixture #1, and […] were incubated at 37° C. for 3 minutes. […] Finally, 50 μL of Mixture #2 was added to diluted plasma+Mixture #1 and the reaction was monitored at 405 nm for 5 minutes. The rate is the change in absorbance between 30 seconds and 120 seconds expressed as mOD/minute. […]
The effect of varying C6PS levels was also monitored as described above using normal pooled plasma (100% factor VIII), except that the concentration of C6PS in Mixture #1 was varied by serial dilution into buffer before being added to the final Mixture #1.

For data set [3], the target named is FXa (Homo sapiens, UniProt P00742). The settings on record: equilibrium dialysis; cited from earlier work.
Chain of FXa (P00742 41-179 limits assumed): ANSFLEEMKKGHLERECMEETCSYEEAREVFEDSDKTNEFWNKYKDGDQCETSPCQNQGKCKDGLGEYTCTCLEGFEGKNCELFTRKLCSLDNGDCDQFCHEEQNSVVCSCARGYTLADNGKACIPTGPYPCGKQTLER
Chain of FXa (P00742 235-488 limits assumed): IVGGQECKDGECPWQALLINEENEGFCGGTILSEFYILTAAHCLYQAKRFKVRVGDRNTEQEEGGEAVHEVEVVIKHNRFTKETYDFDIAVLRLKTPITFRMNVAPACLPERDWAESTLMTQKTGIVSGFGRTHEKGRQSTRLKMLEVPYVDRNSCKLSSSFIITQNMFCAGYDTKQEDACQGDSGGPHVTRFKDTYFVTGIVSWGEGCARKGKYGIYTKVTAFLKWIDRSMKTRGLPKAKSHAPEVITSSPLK
Data set [4] in a line: CMC of C6PS using ANS as fluorescent probe in the presence of factor IXa. The settings on record: 200 nM factor IXa, 5 mM calcium. In kind it is physicochemical.
Data set [5] has as its target T2, prothrombinase complex (FXa-FVa) (Homo sapiens, UniProt P00742+P12259).
T2 construct: Human prothrombin and factor Xa; tissue Hematologic Technologies Inc. (factor Xa only); factor Xa purchased
The experiment in a line: Kinetics of prothrombin and MzIIa activation by C6PS- or membrane-assembled prothrombinase. In kind it is biochemical. The procedure:
Fluorescence Stopped-Flow Measurements. The rates of thrombin formation from either MzIIa or Pre2 (with equimolar fragment 1.2), or of thrombin plus MzIIa formation from human prothrombin, were estimated from the time-dependent fluorescence change of DAPA bound to the activation products. […] Stopped-flow measurements were performed using an SLM-Aminco Milliflow® stopped flow reactor (Spectronic Instruments, Inc., Rochester, N.Y.) attached to the SLM 48000® spectrofluorometer (Spectronic Instruments) as described (Wu, et al. (2002) supra; Weinreb, et al. (2003) supra). […] The calculation of rates from measurements of initial fluorescence intensity (F0) and intensity at the completion of the reaction (F∞) is well-established (Nesheim and Mann (1983) supra; Wu, et al. (2002) supra).
Rapid Chemical Quench Measurements. […] Prothrombin solution in 50 mM Tris, 150 mM NaCl, 5 mM Ca^2+, 0.6% PEG (to limit thrombin adsorption to micro-plates), pH 7.5, was loaded into one sample loop, and pre-assembled prothrombinase complex (factor concentrations same as in stopped flow fluorescence studies) in the same buffer was loaded into another sample loop. […]

pKd: −log10 of the molar value.

T2 sequence (P00742 41-179 limits assumed): as the sequence (P00742 41-179 limits assumed) above
T2 sequence (P00742 235-488 limits assumed): as the sequence (P00742 235-488 limits assumed) above
T2 sequence (P12259 29-737 limits assumed): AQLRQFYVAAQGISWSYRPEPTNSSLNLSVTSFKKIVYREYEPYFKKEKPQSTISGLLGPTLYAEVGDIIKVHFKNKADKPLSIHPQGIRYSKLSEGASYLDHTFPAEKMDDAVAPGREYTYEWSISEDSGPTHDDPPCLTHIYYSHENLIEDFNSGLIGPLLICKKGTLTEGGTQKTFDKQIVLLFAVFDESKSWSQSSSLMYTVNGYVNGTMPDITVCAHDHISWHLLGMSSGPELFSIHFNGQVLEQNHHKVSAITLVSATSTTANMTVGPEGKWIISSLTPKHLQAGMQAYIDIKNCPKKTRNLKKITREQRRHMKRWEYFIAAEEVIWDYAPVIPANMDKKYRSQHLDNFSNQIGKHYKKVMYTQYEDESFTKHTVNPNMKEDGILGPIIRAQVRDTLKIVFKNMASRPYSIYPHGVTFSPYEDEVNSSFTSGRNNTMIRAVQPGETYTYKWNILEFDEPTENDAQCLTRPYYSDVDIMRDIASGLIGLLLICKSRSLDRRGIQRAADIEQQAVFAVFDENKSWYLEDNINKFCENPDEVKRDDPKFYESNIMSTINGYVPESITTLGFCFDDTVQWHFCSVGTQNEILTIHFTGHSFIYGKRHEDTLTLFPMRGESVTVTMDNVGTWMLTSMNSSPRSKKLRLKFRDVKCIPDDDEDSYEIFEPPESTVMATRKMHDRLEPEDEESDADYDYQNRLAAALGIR
T2 sequence (P12259 1574-2224 limits assumed): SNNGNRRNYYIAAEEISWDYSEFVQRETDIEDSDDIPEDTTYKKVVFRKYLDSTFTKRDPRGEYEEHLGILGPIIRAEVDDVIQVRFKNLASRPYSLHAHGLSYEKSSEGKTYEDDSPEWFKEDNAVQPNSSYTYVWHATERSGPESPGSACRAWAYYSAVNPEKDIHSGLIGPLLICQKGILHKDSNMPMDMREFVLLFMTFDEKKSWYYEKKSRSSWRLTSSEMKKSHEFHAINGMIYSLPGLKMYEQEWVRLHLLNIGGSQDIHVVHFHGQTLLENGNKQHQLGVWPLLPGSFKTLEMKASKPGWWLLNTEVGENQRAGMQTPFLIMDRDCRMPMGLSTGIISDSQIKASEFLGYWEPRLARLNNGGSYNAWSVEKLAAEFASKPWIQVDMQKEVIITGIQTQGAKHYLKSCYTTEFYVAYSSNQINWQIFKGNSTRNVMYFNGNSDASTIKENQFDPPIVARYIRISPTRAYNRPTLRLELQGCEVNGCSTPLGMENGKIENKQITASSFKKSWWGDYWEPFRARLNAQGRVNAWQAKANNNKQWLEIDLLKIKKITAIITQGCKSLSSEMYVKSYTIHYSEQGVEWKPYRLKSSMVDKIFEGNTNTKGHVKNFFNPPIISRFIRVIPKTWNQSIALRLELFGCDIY
Chain of APC (P04070 43-197 limits assumed): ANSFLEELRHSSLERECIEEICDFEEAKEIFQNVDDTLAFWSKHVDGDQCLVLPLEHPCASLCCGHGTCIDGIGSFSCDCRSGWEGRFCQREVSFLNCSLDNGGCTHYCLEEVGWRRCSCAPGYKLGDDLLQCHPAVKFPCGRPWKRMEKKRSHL
Chain of APC (P04070 212-461 limits assumed): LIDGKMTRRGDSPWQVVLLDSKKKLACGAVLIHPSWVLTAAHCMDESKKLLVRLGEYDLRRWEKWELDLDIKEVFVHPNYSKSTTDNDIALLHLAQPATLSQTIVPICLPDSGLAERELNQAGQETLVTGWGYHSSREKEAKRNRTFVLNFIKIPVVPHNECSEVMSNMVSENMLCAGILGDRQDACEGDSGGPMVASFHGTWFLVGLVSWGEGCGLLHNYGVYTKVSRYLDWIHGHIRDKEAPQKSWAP

Consider `CCCCCC(=O)OC[C@H](COP(=O)(O)OC[C@H](N)C(=O)O)OC(=O)CCCCC` [C6PS, 1,2-dicaproyl-sn-glycero-3-phospho-L-serine], for which the pKd in data set [1] is roughly 6.00. Further, in data set [2], the “rate in FVIII chromogenic assay versus C6PS concentration” value is recorded as “saturated”. In data set [3], the “stoichiometry of C6PS binding to FXa at saturation” value was 2. Also, in data set [4], the “CMC of C6PS” value stood at 950 µM. In addition, the “fraction of prothrombin converted directly (channeled) to thrombin” value in data set [5] (400 μM C6PS, FXa 1 nM, FVa2 5 nM) turned out to be 58%. Further, the “activation by C6PS-assembled complex relative to literature membrane complex” value in data set [5] (C6PS with FVa2 vs membrane with FVa) is listed as “an order of magnitude faster”.
